Assay results reported in PubChem BioAssay AID1963964 (Molecular Pharmacology Branch, DTP, NCI, 2024).

System: 997726-040-R-J2-PDC tumor spheroids, viability
Test: Anticancer human tumor 997726-040-R-J2-PDC patient-derived squamous cell lung carcinoma cell line growth inhibition [PI3K]
Conditions: spheroids with HUVEC and MSC; for IC50: curve of first compound; for viability, T/C: stronger effect = lower value
From the text: Combinatorial screen of targeted agents with the PI3K inhibitors inavolisib, alpelisib, duvelisib, and copanlisib in multi-cell type tumor spheroids
A high-throughput screen of multi-cell type tumor spheroids was designed to identify active combinations of targeted small molecules and PI3K pathway inhibitors. Complex spheroids include a stromal component modeled by human endothelial cells (HUVEC) and fibroblasts modeled by human mesenchymal stem cells (MSCs). The concentration ranges selected for each drug and investigational agent were based upon clinically achievable concentrations if the clinical Cmax of the agent was known.
Compounds. The drugs and investigational agents: inavolisib (NSC800729), alpelisib (NSC765974), duvelisib (NSC772469), copanlisib (NSC816437), ipatasertib (NSC767898), afuresertib (NSC778305), talazoparib (NSC767125), sapanisertib (NSC764658), selumetinib (NSC741078), tovorafenib (DAY101, NSC766906), vemurafenib (NSC761431), ravoxertinib (NSC781343), sotorasib (NSC818433), MRTX1133 (NSC 836407), abemaciclib (NSC 768073), palbociclib (NSC758247), venetoclax (NSC 766270), SY5609 (NSC837396), enzalutamide (NSC755605), and darolutamide (NSC825331), were obtained from the National Cancer Institute (NCI) Developmental Therapeutics Program Chemical Repository. The FDA-approved anticancer drug set is available from the NCI Developmental Therapeutics Program. […] The stock solutions were prepared in dimethyl sulfoxide (DMSO, Sigma-Aldrich, St. Louis, MO, cat. D2650) at 800-fold the tested concentration and stored at -70 degrees C prior to their use. All drugs and investigational agents were tested over a range starting from a high concentration at or near the clinical Cmax and decreasing in half-log increments. If the clinical Cmax for an agent had not been determined, the highest concentration tested was 10 microM.
Cell Culture. All cells were maintained in an incubator at 37 degrees C and 5% CO2 with 95% humidity. The PDC lines were cultured according to standard operating procedures established by the NCI PDMR (https://pdmr.cancer.gov/sops/default.htm). All PDCs were thawed and cultured in Matrigel-coated flasks prepared with a working solution of 1X Ham's F-12 nutrient mix, without supplementation (Invitrogen, Waltham, MA, cat. 11765054), 100 U/mL penicillin-streptomycin (Invitrogen, cat. 15140122), and 2.5% Matrigel (Corning Inc., Corning, NY, cat. 354248) for the first three passages. The 354836-022-R-J1-PDC, 475296-252-R-J1-PDC, and 997726-040-R-J2-PDC lines were cultured in 6A media, which includes advanced DMEM/F-12 (Thermo Fisher Scientific, cat. 12634028), 10 mM HEPES (Thermo Fisher Scientific, cat. 15630080), 1X GlutaMAX supplement (Thermo Fisher Scientific, cat. 35050061), 0.1 mg/mL primocin (InvivoGen, San Diego, CA, cat. ant-pm-2), 10% defined fetal bovine serum, heat inactivated (HyClone Laboratories Inc., Logan, UT, cat. SH30070.03HI), 50% L-WRN conditioned media (ATCC, cat. CRL-3276), 1.25 mM N-Acetyl-L-cysteine (Sigma-Aldrich, cat. A9165), 10 mM nicotinamide (Sigma-Aldrich, cat. N0636), 1X B-27 supplement (Thermo Fisher Scientific, cat. 17504044), 1X N-2 supplement (Thermo Fisher Scientific, cat. 17502048), and 10 microM Y-27632 dihydrochloride (Tocris Bioscience, Bristol, United Kingdom, cat. 1254). The 624824-186-R-J2-PDC line was cultured in 6C/Colon 1B media, which includes all 6A media components plus 50 ng/mL human EGF recombinant protein (Thermo Fisher Scientific, cat. PHG0311). […]

[1] = second compound 0.0316 µM, first compound 0.0316 µM
[2] = second compound 0.0316 µM, first compound 0.1 µM
[3] = second compound 0.0316 µM, first compound 0.316 µM
[4] = second compound 0.0316 µM, first compound 1 µM
[5] = second compound 0.0316 µM, first compound 3.16 µM
[6] = second compound 0.0316 µM, first compound 10 µM
[7] = second compound 0.1 µM, first compound 0.0316 µM
[8] = second compound 0.1 µM, first compound 0.1 µM
[9] = second compound 0.1 µM, first compound 0.316 µM
[10] = second compound 0.1 µM, first compound 1 µM
[11] = second compound 0.1 µM, first compound 3.16 µM
[12] = second compound 0.1 µM, first compound 10 µM
[13] = second compound 0.316 µM, first compound 0.0316 µM
[14] = second compound 0.316 µM, first compound 0.1 µM
[15] = second compound 0.316 µM, first compound 0.316 µM
[16] = second compound 0.316 µM, first compound 1 µM
[17] = second compound 0.316 µM, first compound 3.16 µM
[18] = second compound 0.316 µM, first compound 10 µM
[19] = second compound 1 µM, first compound 0.0316 µM
[20] = second compound 1 µM, first compound 0.1 µM
[21] = second compound 1 µM, first compound 0.316 µM
[22] = second compound 1 µM, first compound 1 µM
[23] = second compound 1 µM, first compound 3.16 µM
[24] = second compound 1 µM, first compound 10 µM
[25] = second compound 3.16 µM, first compound 0.0316 µM
[26] = second compound 3.16 µM, first compound 0.1 µM
[27] = second compound 3.16 µM, first compound 0.316 µM
[28] = second compound 3.16 µM, first compound 1 µM
[29] = second compound 3.16 µM, first compound 3.16 µM
[30] = second compound 3.16 µM, first compound 10 µM
[31] = second compound 10 µM, first compound 0.0316 µM
[32] = second compound 10 µM, first compound 0.1 µM
[33] = second compound 10 µM, first compound 0.316 µM
[34] = second compound 10 µM, first compound 1 µM
[35] = second compound 10 µM, first compound 3.16 µM
[36] = second compound 10 µM, first compound 10 µM
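Further: spheroids exposed to compounds for seven days before readout.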

## CC(Cn1ccc(-c2ccc(C#N)c(Cl)c2)n1)NC(=O)c1cc(C(C)O)[nH]n1 (centres undefined) + Cc1nc(NC(=O)N2CCCC2C(N)=O)sc1-c1ccnc(C(C)(C)C(F)(F)F)c1
Second compound 0.0316 µM
  IC50: > 10 µM
Second compound 0.1 µM
  IC50: > 10 µM
Second compound 0.316 µM
  IC50: > 10 µM
Second compound 1 µM
  IC50: < 0.0316 µM
Second compound 3.16 µM
  IC50: < 0.0316 µM
Second compound 10 µM
  IC50: < 0.0316 µM
[1]
  viability, T/C: 88.7%
[2]
  viability, T/C: 92.7%
[3]
  viability, T/C: 90.5%
[4]
  viability, T/C: 95.7%
[5]
  viability, T/C: 86.2%
[6]
  viability, T/C: 86%
[7]
  viability, T/C: 76%
[8]
  viability, T/C: 74.3%
[9]
  viability, T/C: 80.2%
[10]
  viability, T/C: 74.3%
[11]
  viability, T/C: 78.9%
[12]
  viability, T/C: 72.1%
[13]
  viability, T/C: 62.5%
[14]
  viability, T/C: 53.5%
[15]
  viability, T/C: 59.5%
[16]
  viability, T/C: 57.5%
[17]
  viability, T/C: 58.9%
[18]
  viability, T/C: 54%
[19]
  viability, T/C: 45%
[20]
  viability, T/C: 44.7%
[21]
  viability, T/C: 47.3%
[22]
  viability, T/C: 39.8%
[23]
  viability, T/C: 43.1%
[24]
  viability, T/C: 41.8%
[25]
  viability, T/C: 29.4%
[26]
  viability, T/C: 27.1%
[27]
  viability, T/C: 32%
[28]
  viability, T/C: 33.4%
[29]
  viability, T/C: 30.6%
[30]
  viability, T/C: 26.7%
[31]
  viability, T/C: 15.4%
[32]
  viability, T/C: 14.6%
[33]
  viability, T/C: 16.2%
[34]
  viability, T/C: 15.1%
[35]
  viability, T/C: 14.4%
[36]
  viability, T/C: 9.85%

## C=CC(=O)N1CCN(c2nc(=O)n(-c3c(C)ccnc3C(C)C)c3nc(-c4c(O)cccc4F)c(F)cc23)C(C)C1 (centres undefined) + CC(Nc1ncnc2nc[nH]c12)c1cc2cccc(Cl)c2c(=O)n1-c1ccccc1
Second compound 0.0316 µM
  IC50: > 10 µM
Second compound 0.1 µM
  IC50: > 10 µM
Second compound 0.316 µM
  IC50: > 10 µM
Second compound 1 µM
  IC50: > 10 µM
Second compound 3.16 µM
  IC50: > 10 µM
Second compound 10 µM
  IC50: > 10 µM
[1]
  viability, T/C: 91.5%
[2]
  viability, T/C: 112%
[3]
  viability, T/C: 107%
[4]
  viability, T/C: 106%
[5]
  viability, T/C: 123%
[6]
  viability, T/C: 130%
[7]
  viability, T/C: 108%
[8]
  viability, T/C: 103%
[9]
  viability, T/C: 101%
[10]
  viability, T/C: 104%
[11]
  viability, T/C: 113%
[12]
  viability, T/C: 126%
[13]
  viability, T/C: 104%
[14]
  viability, T/C: 95%
[15]
  viability, T/C: 104%
[16]
  viability, T/C: 102%
[17]
  viability, T/C: 133%
[18]
  viability, T/C: 113%
[19]
  viability, T/C: 86.7%
[20]
  viability, T/C: 86.4%
[21]
  viability, T/C: 92.7%
[22]
  viability, T/C: 98.4%
[23]
  viability, T/C: 120%
[24]
  viability, T/C: 109%
[25]
  viability, T/C: 72.2%
[26]
  viability, T/C: 75.4%
[27]
  viability, T/C: 78.9%
[28]
  viability, T/C: 85.3%
[29]
  viability, T/C: 96.2%
[30]
  viability, T/C: 95.6%
[31]
  viability, T/C: 58.1%
[32]
  viability, T/C: 51%
[33]
  viability, T/C: 60.8%
[34]
  viability, T/C: 55.8%
[35]
  viability, T/C: 64.7%
[36]
  viability, T/C: 68.8%
